Data taken from US7704979B2, “Materials and methods for the treatment or prevention of obesity” (The University of Tennessee Research Foundation, priority 2000, dated 2010).

How the values were obtained:
human adipocytes [1] = assay: Human adipocyte [Ca2+]i, fura-2 imaging (Example 4); assay type: cell-based
human adipocytes [2] = assay: FAS activity in human adipocytes (Example 4); assay type: cell-based
Method: A human adipocyte cell line and primary-cultured human adipocytes were both used as cell models in this study. The human adipocyte cell line was differentiated from human preadipocytes obtained from Zen-Bio Inc. (Research Triangle Park, N.C.). Human preadipocytes were inoculated in Dulbecco's Modified Eagle' Medium (DMEM)/Ham' F-10 medium (F-10) (1:1, v/v) containing 10% fetal bovine serum (FBS), 15mM Hepes and antibiotics at a density of 30,000 cells/cm^2. Confluent monolayers of preadipocytes were induced to differentiate with a standard differentiation medium consisting of DMEM/F-10 (1:1, v/v) medium supplemented with 15 mM Hepes, 3% FBS, 33 μM biotin, 17 μM pantothenate, 100 nM insulin, 0.25 mM methylisobutylxanthine (MIX), 1 μM dexamethasome, 1 μM BRL49653 and antibiotics. Preadipocytes were maintained in this differentiation medium for 3 days and subsequently cultured in adipocyte medium in which BRL49653 and MIX were withdrawn. Cultures were re-fed every 2-3 days (Shi, H., et al., “Role of intracellular calcium in human adipocyte differentiation,” Phyisol. Genomics. (2000) pp. 75-82, vol. 3.). Primary-cultured human adipocytes were derived from human subcutaneous adipose tissue obtained from patients undergoing abdominal plastic surgery with no known history of metabolic disorders. This protocol was approved by the Institutional Review Board for Human Subjects and the Committee for Research Participation of the University of Tennessee. Adipocytes were isolated according to the teachings of (Shi, H., et al., “Role of the sulfonylurea receptor in regulating human adipocyte metabolism,” FASEB. J. (1999) pp. 1833-38, vol. 13.). […] FAS and GPDH activity was determined spectrophotometrically in crude cytosolic extracts of human adipocytes as previously described (Shi, H., et al., “Role of the sulfonylurea receptor in regulating human adipocyte metabolism,” FASEB. J. (1999) pp. 1833-38, vol. 13). […]

human adipocytes [3] = assay: GPDH activity in human adipocytes (Example 4); assay type: cell-based
Method: A human adipocyte cell line and primary-cultured human adipocytes were both used as cell models in this study. The human adipocyte cell line was differentiated from human preadipocytes obtained from Zen-Bio Inc. (Research Triangle Park, N.C.). Human preadipocytes were inoculated in Dulbecco's Modified Eagle' Medium (DMEM)/Ham' F-10 medium (F-10) (1:1, v/v) containing 10% fetal bovine serum (FBS), 15mM Hepes and antibiotics at a density of 30,000 cells/cm^2. Confluent monolayers of preadipocytes were induced to differentiate with a standard differentiation medium consisting of DMEM/F-10 (1:1, v/v) medium supplemented with 15 mM Hepes, 3% FBS, 33 μM biotin, 17 μM pantothenate, 100 nM insulin, 0.25 mM methylisobutylxanthine (MIX), 1 μM dexamethasome, 1 μM BRL49653 and antibiotics. Preadipocytes were maintained in this differentiation medium for 3 days and subsequently cultured in adipocyte medium in which BRL49653 and MIX were withdrawn. Cultures were re-fed every 2-3 days (Shi, H., et al., “Role of intracellular calcium in human adipocyte differentiation,” Phyisol. Genomics. (2000) pp. 75-82, vol. 3.). Primary-cultured human adipocytes were derived from human subcutaneous adipose tissue obtained from patients undergoing abdominal plastic surgery with no known history of metabolic disorders. This protocol was approved by the Institutional Review Board for Human Subjects and the Committee for Research Participation of the University of Tennessee. Adipocytes were isolated according to the teachings of (Shi, H., et al., “Role of the sulfonylurea receptor in regulating human adipocyte metabolism,” FASEB. J. (1999) pp. 1833-38, vol. 13.). Briefly, adipose tissue was first washed several times with Hank's Balanced Salt Solution, minced into small pieces and digested with 1 mg/ml type1 collagenase in a shaking water bath at 37° C. for 30 min. Adipocytes were then filtered through a sterile 500 μm nylon mesh and cultured in Dulbecco's Modified Eagle's Medium (DMEM) supplemented with 1% fetal bovine serum (FBS), 100 UI/ml penicillin, 100 μg/ml streptomycin and 50 μg/ml gentamicin. Cells were cultured in suspension and maintained in a thin layer at the top of culture media, which were changed every day. Cells were maintained viable and metabolically responsive under this culture condition for 7 days. FAS and GPDH activity was determined spectrophotometrically in crude cytosolic extracts of human adipocytes as previously described (Shi, H., et al., “Role of the sulfonylurea receptor in regulating human adipocyte metabolism,” FASEB. J. (1999) pp. 1833-38, vol. 13). Human adipocytes were homogenized in 250 mmol/L sucrose solution containing 1 mmol/L ethylenediamine-tetraacticacid (EDTA), 1 mmol/L dithiothreitol (DTT), and 100 μmol/L phenylmethylsulfonyl fluoride (PMSF) (pH 7.4). […]

human adipocytes [4] = assay: FAS mRNA expression in human adipocytes, Northern blot (Example 4); assay type: cell-based
Method: A human adipocyte cell line and primary-cultured human adipocytes were both used as cell models in this study. The human adipocyte cell line was differentiated from human preadipocytes obtained from Zen-Bio Inc. (Research Triangle Park, N.C.). Human preadipocytes were inoculated in Dulbecco's Modified Eagle' Medium (DMEM)/Ham' F-10 medium (F-10) (1:1, v/v) containing 10% fetal bovine serum (FBS), 15mM Hepes and antibiotics at a density of 30,000 cells/cm^2. Confluent monolayers of preadipocytes were induced to differentiate with a standard differentiation medium consisting of DMEM/F-10 (1:1, v/v) medium supplemented with 15 mM Hepes, 3% FBS, 33 μM biotin, 17 μM pantothenate, 100 nM insulin, 0.25 mM methylisobutylxanthine (MIX), 1 μM dexamethasome, 1 μM BRL49653 and antibiotics. Preadipocytes were maintained in this differentiation medium for 3 days and subsequently cultured in adipocyte medium in which BRL49653 and MIX were withdrawn. Cultures were re-fed every 2-3 days (Shi, H., et al., “Role of intracellular calcium in human adipocyte differentiation,” Phyisol. Genomics. (2000) pp. 75-82, vol. 3.). Primary-cultured human adipocytes were derived from human subcutaneous adipose tissue obtained from patients undergoing abdominal plastic surgery with no known history of metabolic disorders. This protocol was approved by the Institutional Review Board for Human Subjects and the Committee for Research Participation of the University of Tennessee. Adipocytes were isolated according to the teachings of (Shi, H., et al., “Role of the sulfonylurea receptor in regulating human adipocyte metabolism,” FASEB. J. (1999) pp. 1833-38, vol. 13.). Briefly, adipose tissue was first washed several times with Hank's Balanced Salt Solution, minced into small pieces and digested with 1 mg/ml type1 collagenase in a shaking water bath at 37° C. for 30 min. […] ZERO-Dscan software (Scanalytics, Inc, Fairfax, Va.) was used to quantitatively analyze these images.

nVDR = conditions: cited from earlier work
human adipocytes [5] = assay: Basal lipolysis (glycerol release) in human adipocytes (Example 4); assay type: cell-based
Method: (§1) A human adipocyte cell line and primary-cultured human adipocytes were both used as cell models in this study. The human adipocyte cell line was differentiated from human preadipocytes obtained from Zen-Bio Inc. (Research Triangle Park, N.C.). Human preadipocytes were inoculated in Dulbecco's Modified Eagle' Medium (DMEM)/Ham' F-10 medium (F-10) (1:1, v/v) containing 10% fetal bovine serum (FBS), 15mM Hepes and antibiotics at a density of 30,000 cells/cm^2. Confluent monolayers of preadipocytes were induced to differentiate with a standard differentiation medium consisting of DMEM/F-10 (1:1, v/v) medium supplemented with 15 mM Hepes, 3% FBS, 33 μM biotin, 17 μM pantothenate, 100 nM insulin, 0.25 mM methylisobutylxanthine (MIX), 1 μM dexamethasome, 1 μM BRL49653 and antibiotics. Preadipocytes were maintained in this differentiation medium for 3 days and subsequently cultured in adipocyte medium in which BRL49653 and MIX were withdrawn. Cultures were re-fed every 2-3 days (Shi, H., et al., “Role of intracellular calcium in human adipocyte differentiation,” Phyisol. Genomics. (2000) pp. 75-82, vol. 3.). Primary-cultured human adipocytes were derived from human subcutaneous adipose tissue obtained from patients undergoing abdominal plastic surgery with no known history of metabolic disorders. […]

human adipocytes [6] = assay: Isoproterenol-stimulated lipolysis in human adipocytes (Example 4); assay type: cell-based
Method: as §1

human adipocytes [7] = assay: Forskolin-stimulated lipolysis (glycerol release) in human adipocytes; assay type: cell-based; conditions: data not shown
human adipocytes [8] = assay: Intracellular Ca2+ in primary cultures of human adipocytes (fura-2 fluorometry); assay type: cell-based; conditions: read-out: EC50 for increase in intracellular Ca2+
Method: Human subcutaneous adipose tissue was obtained from patients with no known history of metabolic disorders undergoing abdominal plastic surgery. Adipocytes were isolated by washing, mincing, collagenase digestion, and filtration as described previously and cultured in Dulbecco's modified Eagle's medium supplemented with 1% fetal bovine serum, penicillin (100 IU/ml), streptomycin (100 μg/ml), and gentamicin (50 μg/ml). Cells were cultured in suspension and maintained in a thin layer at the top of the culture media, which was changed every day. Cells were studied about 72 hours after isolation and were serum-starved prior to study.
Intracellular Ca^2+ was determined fluorometrically as described previously. Cells were washed with HEPES-buffered salt solution loaded with fura-2-acetoxymethyl ester (10 μM) for 45 minutes at 37° C. in the dark with continuous shaking. Cells were then rinsed three times, resuspended, and intracellular Ca^2+ was measured using dual excitation (340 and 380 nm)/single emission (510 nm) fluorometry. After the establishment of a stable baseline, the response to 1,25-(OH)2-D or parathyroid hormone (10 pM-100 nM) or their respective vehicles was determined. Digitonin (25 μM) and Tris/EGTA (100 mM, pH 8.7) were used to for calibration to calculate the final intracellular Ca^2+.

Compound: C=C1/C(=C\C=C2/CCC[C@]3(C)[C@@H]([C@H](C)CCCC(C)(C)O)CC[C@@H]23)C[C@@H](O)C[C@@H]1O [1α,25-(OH)2-D3, 1α,25-Dihydroxyvitamin D3]
- [Ca2+]i response in human adipocytes (human adipocytes [1]): significant increase of [Ca^2+]i in human adipocyte in a dose-dependent manner
- increase in adipocyte FAS activity (human adipocytes [2]; 5 nM, over 48 hrs): 40%
- increase in human adipocyte GPDH activity (human adipocytes [3]; 5 nM): 50%
- increase in FAS mRNA expression (human adipocytes [4]): 2 fold

Compound: C[C@H](CCCC(C)(C)O)[C@H]1CC[C@H]2C3=CC=C4C[C@@H](O)C[C@H](O)[C@@]4(C)[C@@H]3CC[C@]12C [1α,25-(OH)2-lumisterol3, 1α,25-dihydroxylumisterol3]
- [Ca2+]i response in human adipocytes (human adipocytes [1]): marked dose-responsive increases
- binding affinity to nVDR (nVDR): low binding affinity
- inhibition of adipocyte basal lipolysis (human adipocytes [5]): 50%
- increase in FAS activity (human adipocytes [2]; human adipocytes): 2.5 fold
- inhibition of isoproterenol-stimulated lipolysis (human adipocytes [6]): 53%
- stimulation of GPDH activity (human adipocytes [3]; human adipocytes): 2.8 fold
- increase in FAS mRNA expression (human adipocytes [4]): 2.5 fold

Compound: C=C1/C(=C\C=C2/CCC[C@]3(C)[C@@H]([C@H](C)CCCC(C)(C)O)CC[C@@H]23)C[C@@H](O)C[C@H]1O [1β,25-(OH)2-D3, 1β,25-dihydroxyvitamin D3]
- effect of pre-treatment on 1α,25-(OH)2-lumisterol3-induced increases in [Ca2+]i (human adipocytes [1]; pre-treatment of human adipocytes): completely prevented
- effects on nVDR (nVDR): no effects
- effect of pretreatment on stimulation of FAS activity (human adipocytes [2]; pretreatment of human adipocytes): completely prevented
- effect on 1α,25-(OH)2-D3 stimulated GPDH activity (human adipocytes [3]; human adipocytes): little effect
- effect on 1α,25-(OH)2-lumisterol3 stimulated GPDH activity (human adipocytes [3]; human adipocytes): markedly inhibited
- effect on stimulation of FAS mRNA expression (human adipocytes [4]): completely blocked

Compound: CC(C)NCC(O)c1ccc(O)c(O)c1 (centres unmarked) [isoproterenol]
- increase in lipolysis (human adipocytes [6]): 3.2 fold

Compound: parathyroid hormone [PTH]
- effect on lipolysis (human adipocytes [7]): little effect
- EC50 (human adipocytes [8]): ~10 nM
